One series relates to HepG2. The series can be described thus: Antiproliferative activity against human HepG2 cells incubated for 48 hrs by MTT assay. The series is classed as functional, cell-based. The settings on record: HepG2, 48 h. On the technique in general: Tetrazolium dyes change colour on reduction, which living cells bring about.
Series [1] can be described thus: Antitumor activity against […] HepA cells xenografted in KM mouse assessed as inhibition of tumor weight at 36 mg/kg, iv dosed for 10 days relative to untreated control. The series is classed as functional. The settings on record: 240 h, read-out: TGI. Background: Xenograft models place foreign cells or tissue in a host animal.
For the next series, the system named is Mus musculus. As to the kind of experiment: Toxicity in […] HepA cells xenografted KM mouse assessed as reduction in body weight at 18 to 72 mg/kg, iv dosed for 10 days relative to untreated control. Also on record: scale not given: the % may be the effect or the level left. The series is classed as organism-based. The settings on record: in vivo, 240 h.

Series [2] in a line: Antitumor activity against […] HepA cells xenografted in KM mouse assessed as inhibition of tumor weight at 72 mg/kg, iv dosed for 10 days relative to untreated control. In kind it is functional. The conditions noted are these: 240 h, read-out: TGI.
Series [3] in a line: Antitumor activity against […] HepA cells xenografted in KM mouse assessed as inhibition of tumor weight at 18 mg/kg, iv dosed for 10 days relative to untreated control. The series is classed as functional. The settings on record: 240 h, read-out: TGI.
A short description of series [4]: Stability of the compound. In kind it is physicochemical.

From ChEMBL document CHEMBL3616419, “Synthesis, structure-activity relationship and biological evaluation of novel nitrogen mustard sophoridinic acid derivatives as potential anticancer agents” (Bioorg Med Chem Lett, 2015) come the findings set out here.

≈ marks a conversion by molar mass, not a printed value.

Usually IC50 stands for the concentration needed to halve the response being measured. `O=C(CCC[C@H]1[C@H]2CCCN3CCC[C@H](CN1Cc1ccccc1)[C@@H]23)Nc1ccc(N(CCCl)CCCl)cc1`: in the series with HepG2, the midpoint of inhibition, the IC50, lay at 0.47 µg/mL (≈ 0.822 µM). Besides, the inhibition in vivo at 36 mg/kg in series [1] is 47.3%. Also, in the series on Mus musculus, the Activity result was “<= 20%”. For the same compound, in series [2], the inhibition in vivo at 72 mg/kg is 58.2%. In series [3], the inhibition in vivo at 18 mg/kg is 42.5%. `CCCOC(=O)CCC[C@@H]1NC[C@H]2CCCN3CCC[C@H]1[C@H]23` displayed an IC50 in the series on HepG2 of 196 µg/mL (≈ 635 µM).

In turn, `COC(=O)CCC[C@H]1[C@H]2CCCN3CCC[C@H](CN1C(=O)c1ccc(N(CCCl)CCCl)cc1)[C@@H]23` displayed an IC50 in the series with HepG2 of 167 µg/mL (≈ 319 µM). Besides, in series [4], the Stability result was “Unstable”. Take `O=C(CCC[C@H]1[C@H]2CCCN3CCC[C@H](CN1Cc1ccccc1)[C@@H]23)N(CCCl)CCCl`: the IC50 in the series on HepG2 was found to be 2.74 µg/mL (≈ 5.7 µM). Still for that read-out and setting: the figure for `CCCCOC(=O)CCC[C@@H]1NC[C@H]2CCCN3CCC[C@H]1[C@H]23` is 136 µg/mL (≈ 421 µM). `CC(C)OC(=O)CCC[C@H]1[C@H]2CCCN3CCC[C@H](CN1C(=O)c1ccc(N(CCCl)CCCl)cc1)[C@@H]23` gave an IC50 with HepG2 of 2.39 µg/mL (≈ 4.33 µM). Besides, the Stability result in series [4] is “Unstable”. In the series on HepG2, `CCOC(=O)CCC[C@@H]1NC[C@H]2CCCN3CCC[C@H]1[C@H]23` showed an IC50 of 223 µg/mL (≈ 757 µM). In turn, `CCOC(=O)CCC[C@H]1[C@H]2CCCN3CCC[C@H](CN1C(=O)c1ccc(N(CCCl)CCCl)cc1)[C@@H]23` came in with an IC50 with HepG2 of 91.2 µg/mL (≈ 169 µM). Further, the Stability result in series [4] is listed as “Unstable”.

For the compound `O=C1CCC[C@@H]2[C@H]3CCCN4CCC[C@H](CN12)[C@@H]34` [SOPHORIDINE], the IC50 in the series on HepG2 was 1160 µg/mL (≈ 4670 µM).

On to `N[C@@H](Cc1ccc(N(CCCl)CCCl)cc1)C(=O)O` [MELPHALAN], for which inhibition in the series with HepG2 was half-maximal at 0.41 µg/mL (≈ 1.34 µM) (IC50). On the same count and under the same terms, the figure for `O=C(CCC[C@H]1[C@H]2CCCN3CCC[C@H](CN1Cc1ccccc1)[C@@H]23)OCc1ccc(N(CCCl)CCCl)cc1` is 1.63 µg/mL (≈ 2.78 µM). `CCCOC(=O)CCC[C@H]1[C@H]2CCCN3CCC[C@H](CN1C(=O)c1ccc(N(CCCl)CCCl)cc1)[C@@H]23`: the IC50 in the series on HepG2 was 44.6 µg/mL (≈ 80.7 µM). Also, the Stability entry in series [4] was “Unstable”.

In the series with HepG2, `COC(=O)CCC[C@@H]1NC[C@H]2CCCN3CCC[C@H]1[C@H]23` gave an IC50 of 1650 µg/mL (≈ 5890 µM). `CCCCOC(=O)CCC[C@H]1[C@H]2CCCN3CCC[C@H](CN1C(=O)c1ccc(N(CCCl)CCCl)cc1)[C@@H]23`: inhibition in the series on HepG2 was half-maximal at 25 µg/mL (≈ 44.1 µM) (IC50). In addition, in series [4], the Stability entry was “Unstable”. In the series with HepG2, `CC(C)OC(=O)CCC[C@@H]1NC[C@H]2CCCN3CCC[C@H]1[C@H]23` gave an IC50 of 93.1 µg/mL (≈ 302 µM).
